Laboratory results: US20150065421A1, “BASAL INSULIN THERAPY” (SANOFI, priority 2012, published 2015)

Test system: people at high risk for vascular disease with either IFG, IGT, or early type 2 diabetes
Assay: ORIGIN trial: glycemic control (FPG, A1C)
Format: in vivo, human
Text: Participants were asked to self-administer daily subcutaneous saline injections and to check their capillary glucose levels during a 10 day run-in period. Adherent participants were then provided with lifestyle advice and randomly allocated to either insulin glargine (Lantus™) or standard approaches to glycaemic control. Participants allocated to insulin glargine who were also taking a thiazolidinedione stopped that medication at the time of randomization; otherwise the insulin glargine was added to their glycemic regimen. These participants were instructed to inject insulin glargine in the evening, starting at 2, 4 or 6 units (depending on their initial FPG) and to increase the dose at least once per week targeting a self-measured FPG level ≦5.3 mmol/l (95 mg/dl) and ≧4 mmol/l (72 mg/dl). […] If participants developed uncontrolled hyperglycemia, investigators were permitted to add rapid-acting insulin. No other glucose-lowering medication could be added or increased. FPG levels were measured in the local laboratory at every visit and the results were regularly reviewed along with the dose of insulin to ensure that insulin was being effectively trirated. People not diagnosed with diabetes by the time of the penultimate study visit down-titrated insulin glargine by 10 units per day and stopped any metformin that was prescribed.
Outcomes and other data were collected at scheduled study visits at 0.5, 1, 2, and 4 months after randomization and every 4 months thereafter. Weight, waist and hip circumference were measured annually. HbA1c levels were assayed in local laboratories at every visit for the first year and then annually in people without diabetes and every 4 months for people with diabetes. A first morning urine collection was sent centrally and assayed for creatinine and albumin at baseline, 2 yrs and study end.
Participants assigned to standard therapy continued their prior oral therapies and were managed according to the investigators' judgement and local guidelines for glycemic control and therapeutic approaches. Investigators were advised not to prescribe insulin for standard participants unless they were on full doses of 2 or more oral agents. If insulin was added glargine was not to be used. Participants assigned to basal insulin glargine who were taking a thiazolidinedione prior to randomization stopped this medication but continued to take other glucose-lowering agents. Insulin glargine (Lantus®, Sanofi) was added to their regimen starting at 2 to 6 units daily, based on fasting glucose levels. Participants were advised to inject the insulin in the evening and to self-titrate the dosage using a simple algorithm supported by the site investigators. Self-measured, plasma-referenced fasting capillary blood glucose tests were done at least twice-weekly to guide titration, with the goal of achieving and maintaining fasting glucose 5.3 mmol/l (≦95 mg/dl). Other oral agents could be continued, reduced, or discontinued as judged appropriate during treatment with insulin glargine. The only oral agent that could be added (if not previously used) was metformin, which the site investigator initiated for individual participants at doses of 500-1000 mg/day if judged necessary to limit the risk of hypoglycemia. The importance of lifestyle management was continuously reinforced in both treatment groups.
In addition to self-measured glucose tests, venous blood for measurement of fasting plasma glucose (FPG) and A1C at local laboratories was collected at intervals during treatment. In the case of A1C, measurements were done at baseline, yearly thereafter, and at the end of treatment for all participants. Measurements of FPG were done annually and at the end of treatment for all participants in the glargine treatment group, and at baseline, after 2 years, and at the end of treatment for those using standard therapy. […]

[1] = fully adjusted logistic regression, glargine vs standard care, p<0.001
[2] = participants with diabetes, 2 years
[3] = participants with diabetes, 5 years
[4] = participants with diabetes, 7 years
[5] = participants without diabetes, 5 years
[6] = without diabetes at entry, throughout randomized treatment, both regimens

(Gly A21) Arg (B31) Arg (B32) human insulin [insulin glargine]
A1c (%), median (interquartile range) (Year 1, baseline 6.4): 5.9 (5.5, 6.4) % | FPG (mM), median (interquartile range) (Year 1, baseline 6.9): 5.2 (4.6, 5.9) mM | A1c (%), median (interquartile range) (Year 2): 6.0 (5.5, 6.5) % | FPG (mM), median (interquartile range) (Year 2): 5.0 (4.4, 5.8) mM | A1c (%), median (interquartile range) (Year 3): 6.0 (5.6, 6.6) % | FPG (mM), median (interquartile range) (Year 3): 5.0 (4.4, 5.7) mM | A1c (%), median (interquartile range) (Year 4): 6.1 (5.7, 6.7) % | FPG (mM), median (interquartile range) (Year 4): 5.1 (4.5, 5.8) mM | A1c (%), median (interquartile range) (Year 5): 6.2 (5.7, 6.8) % | FPG (mM), median (interquartile range) (Year 5): 5.1 (4.5, 6.0) mM | A1c (%), median (interquartile range) (Year 6): 6.3 (5.8, 6.8) % | FPG (mM), median (interquartile range) (Year 6): 5.2 (4.6, 6.1) mM | A1c (%), median (interquartile range) (Year 7): 6.2 (5.8, 7.1) % | FPG (mM), median (interquartile range) (Year 7): 5.2 (4.5, 6.3) mM | increase in the likelihood of maintaining mean A1C below 6.5% for 5 years (allocation to basal insulin glargine vs standard care): 2-3 fold | participants achieving a FPG level ≦5.2 mmol/l (by 1 year, maintained throughout the trial): 50% | participants achieving A1C <6.5% (diabetic subgroup, 1 year, 47% before treatment): 74% | participants achieving A1C <7.0% (diabetic subgroup, 1 year, 66% before treatment): 88% | participants achieving A1C <7.0% (diabetic subgroup, 5 years): 77% | participants achieving A1C <6.5% (diabetic subgroup, after 5 years): 60% | people achieving FPG levels below 5.3 mmol/l (95 mg/dl) (for most of the trial): more than 50% | people achieving FPG levels ≦6.0 mmol/l (108 mg/dl) (for most of the trial): 75% | OR (95% CI), 1-year A1C 6.5% (attainment) [1]: 2.50 (2.29-2.74) | OR (95% CI), 1-year A1C 7.0% (attainment) [1]: 2.735 (2.440-3.067) | OR (95% CI), 5-year mean A1C 6.5% (maintenance) [1]: 2.98 | OR (95% CI), 5-year mean A1C 7.0% (maintenance) [1]: 2.408 (2.122-2.732) | OR (95% CI), 5-year mean A1C 6.5% (maintenance) (fully adjusted logistic regression, glargine vs standard care, p<0.001, listed as Glargine): 2.975 (2.671-3.315) | median A1C (inter-quartile range) (participants with diabetes, 1 year, baseline 6.5): 6.0 (5.5-6.5) % | median FPG (inter-quartile range) (participants with diabetes, 1 year, baseline 7.2): 5.2 (4.6-5.9) mmol/l | median A1C (inter-quartile range) [2]: 6.0 (5.6-6.6) % | median FPG (inter-quartile range) [2]: 5.0 (4.4-5.8) mmol/l | median A1C (inter-quartile range) [3]: 6.3 (5.8-6.9) % | median FPG (inter-quartile range) [3]: 5.1 (4.5-6.1) mmol/l | median A1C (inter-quartile range) [4]: 6.3 (5.8-6.9) % | median FPG (inter-quartile range) [4]: 5.3 (4.5-6.4) mmol/l | median A1C (participants without diabetes, 1 year, baseline 5.7): 5.6% | median FPG (inter-quartile range) (participants without diabetes, 1 year, baseline 6.1): 5.0 (4.5-5.5) mmol/l | median FPG (inter-quartile range) (participants without diabetes, 2 years): 4.9 (4.5-5.5) mmol/l | median A1C [5]: 5.8% | median FPG (inter-quartile range) [5]: 5.0 (4.5-5.7) mmol/l | median FPG (inter-quartile range) (participants without diabetes, 7 years): 5.1 (4.5-5.8) mmol/l | participants achieving A1C <6.5% [6]: more than 75% | participants achieving A1C <7.0% [6]: more than 90%
